The structures appear in SMILES notation. Where two headings read alike, the source gives them in different places.

One assay deals with ApoA-I mRNA. The assay can be described thus: ApoA-I mRNA quantitation in HepG2 cells (real-time PCR). It is filed as cell-based. The arrangement: key: Active: An active compound is one that causes a >15% increase in ApoA-I mRNA at a concentration less than or equal to 100 uM. The conditions noted are these: concentration less than or equal to 100 uM, fold induction relative to DMSO control. In short, it runs like this: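 HepG2 cells were lysed after compound treatment and mRNA captured on oligo plates, then quantified by one-step real-time RT-PCR with primer-probe mixes. Ct values gave fold induction relative to the matching DMSO control. Active means >15% increase in ApoA-I mRNA at ≤100 uM.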
(In general: Quantitative PCR measures a nucleic acid by following its amplification.)

In assay [1] the test system is coronary atherosclerosis. As to conditions: 2 years; pravastatin 40 mg daily, atorvastatin 80 mg daily; cited from earlier work.
The subject of assay [2] is coronary atherosclerosis. As to conditions: 2 years; rosuvastatin 40 mg daily, atorvastatin 80 mg daily; cited from earlier work.
The next assay concerns ABCA1. The conditions noted are these: cited from earlier work.
In assay [3] the test system is coronary atherosclerosis. As to conditions: cited from earlier work.

Consider `COc1ccc(C(=O)NCCOc2c(C)cc(-c3nc4cc(OC)cc(OC)c4c(=O)[nH]3)cc2C)cc1` [N-(2-(4-(5,7-dimethoxy-4-oxo-3,4-dihydroquinazolin-2-yl)-2,6-dimethylphenoxy)ethyl)-4-methoxybenzamide], for which the “Effect on ApoA-I mRNA levels” value in the assay on ApoA-I mRNA is recorded as “Active”.

As to `COc1ccc(S(=O)(=O)NCCOc2c(C)cc(-c3nc4cc(OC)cc(OC)c4c(=O)[nH]3)cc2C)cc1` [N-(2-(4-(5,7-dimethoxy-4-oxo-3,4-dihydroquinazolin-2-yl)-2,6-dimethylphenoxy)ethyl)-4-methoxybenzenesulfonamide], the “Effect on ApoA-I mRNA levels” value in the assay on ApoA-I mRNA is “Active”. The same measure, in the same setting: under `COc1cc(OC)c2c(=O)[nH]c(-c3cc(C)c(OCCNS(=O)(=O)c4ccc(C)cc4)c(C)c3)nc2c1` [N-(2-(4-(5,7-dimethoxy-4-oxo-3,4-dihydroquinazolin-2-yl)-2,6-dimethylphenoxy)ethyl)-4-methylbenzenesulfonamide] stands “Active”; under `COc1cc(OC)c2c(=O)[nH]c(-c3cc(C)c(OCCNC(C)=O)c(C)c3)nc2c1` [N-(2-(4-(5,7-dimethoxy-4-oxo-3,4-dihydroquinazolin-2-yl)-2,6-dimethylphenoxy)ethyl)acetamide], “Active”. For `COc1cc(OC)c2c(=O)[nH]c(-c3cc(C)c(OCCNC(=O)c4ccccc4)c(C)c3)nc2c1` [N-(2-(4-(5,7-dimethoxy-4-oxo-3,4-dihydroquinazolin-2-yl)-2,6-dimethylphenoxy)ethyl)benzamide], the “Effect on ApoA-I mRNA levels” value in the assay on ApoA-I mRNA is listed as “Active”. Take `COc1cc(OC)c2c(=O)[nH]c(-c3cc(C)c(OCCNS(=O)(=O)c4ccccc4)c(C)c3)nc2c1` [N-(2-(4-(5,7-dimethoxy-4-oxo-3,4-dihydroquinazolin-2-yl)-2,6-dimethylphenoxy)ethyl)benzenesulfonamide]: the “Effect on ApoA-I mRNA levels” value in the assay with ApoA-I mRNA is reported as “Active”.

Turning to `COc1cc(OC)c2c(=O)[nH]c(-c3cc(C)c(OCCNC(=O)C(C)C)c(C)c3)nc2c1` [N-(2-(4-(5,7-dimethoxy-4-oxo-3,4-dihydroquinazolin-2-yl)-2,6-dimethylphenoxy)ethyl)isobutyramide], in the assay on ApoA-I mRNA, the “Effect on ApoA-I mRNA levels” value is recorded as “Active”.

As for `COc1cc(OC)c2c(=O)[nH]c(-c3cc(C)c(OCCNS(C)(=O)=O)c(C)c3)nc2c1` [N-(2-(4-(5,7-dimethoxy-4-oxo-3,4-dihydroquinazolin-2-yl)-2,6-dimethylphenoxy)ethyl)methanesulfonamide], in the assay on ApoA-I mRNA, the “Effect on ApoA-I mRNA levels” value is “Active”. Still for that read-out and setting: under `CC(=O)Nc1ccc2nc(-c3cc(C)c(O)c(C)c3)[nH]c(=O)c2c1` [N-(2-(4-hydroxy-3,5-dimethylphenyl)-4-oxo-3,4-dihydroquinazolin-6-yl)acetamide] stands “Active”; under `COc1cc(OC)c2c(=O)[nH]c(-c3cc(C)c(NC(=O)CO)c(C)c3)nc2c1` [N-(4-(5,7-dimethoxy-4-oxo-3,4-dihydroquinazolin-2-yl)-2,6-dimethylphenyl)-2-hydroxyacetamide], “Active”; under `COc1cc(OC)c2c(=O)[nH]c(-c3ccc(NC(=O)CO)cc3)nc2c1` [N-(4-(5,7-dimethoxy-4-oxo-3,4-dihydroquinazolin-2-yl)phenyl)-2-hydroxyacetamide], “Active”.

As to `CC(C)c1c(C(=O)Nc2ccccc2)c(-c2ccccc2)c(-c2ccc(F)cc2)n1CC[C@@H](O)C[C@@H](O)CC(=O)O` [atorvastatin], the results for the “median change in PAV” value in the assay with coronary atherosclerosis [1] and in the assay on coronary atherosclerosis [2] were “+0.2%” and −0.99%, respectively. The “effect on expression of ABCA1” value in the assay on ABCA1 is given as “inhibit ABCA1 expression”.

On to `O=C(O)C[C@H](O)C[C@H](O)/C=C/c1c(C2CC2)nc2ccccc2c1-c1ccc(F)cc1` [pitavastatin, (3R,5S,6E)-7-[2-cyclopropyl-4-(4-fluorophenyl)quinolin-3-yl]-3,5-dihydroxyhept-6-enoic acid], for which, in the assay on ABCA1, the “effect on expression of ABCA1” value was “increase expression of ABCA1”. `CC(C)c1nc(N(C)S(C)(=O)=O)nc(-c2ccc(F)cc2)c1/C=C/[C@@H](O)C[C@@H](O)CC(=O)O` [rosuvastatin, (3R,5S,6E)-7-[4-(4-fluorophenyl)-2-(N-methylmethanesulfonamido)-6-(propan-2-yl)pyrimidin-5-yl]-3,5-dihydroxyhept-6-enoic acid]: in the assay with coronary atherosclerosis [3] (2 years, rosuvastatin 40 mg daily, overall), the “median change PAV” value was −0.79%. Further, the “median decrease in PAV from baseline” value with coronary atherosclerosis [3] (2 years, rosuvastatin 40 mg daily, subgroup with average HDL-C during treatment less than 40 mg/dL) was −1.3%. Further, in the assay with coronary atherosclerosis [3] (FIG. 8, 40 mg of rosuvastatin without RVX-208, after 104 weeks), the PAV decrease is 1.30%. For the same compound, in the assay with coronary atherosclerosis [2], the “median change in PAV” value is listed as −1.22%. For the same compound, in the assay with ABCA1, the “effect on expression of ABCA1” value was “increase expression of ABCA1”.

Values taken from patent publication US20160346291A1, “COMPOSITIONS AND THERAPEUTIC METHODS FOR ACCELERATED PLAQUE REGRESSION” (Resverlogix Corp, priority 2013, published 2016).
